{"source": "paper PMC4710668", "about": "“Bioactivation of food genotoxicants 5-hydroxymethylfurfural and furfuryl alcohol by sulfotransferases from human, mouse and rat: a comparative study” (Archives of Toxicology, 2014)", "assay_in_all_cases": "FFA sulfoconjugation assay (N6-MF-A formation with adenosine as scavenger)", "key": {"rSult2a4": {"test_system": "rSult2a4", "type": "biochemical, rat", "procedure": "Cytosolic fractions containing individual SULT forms were prepared from transgenic S. typhimurium TA1538. Table S1 in the Supplementary Material provides a summary of the thirty SULTs used in the current study together with references describing the cloning of the respective S. typhimurium TA1538 strains. The expressed SULT forms are denoted with the prefixes h, m and r for human, mouse and rat enzymes, respectively. Bacteria were grown in Luria Broth medium containing ampicillin (100 µg/ml) by stirring for 8 h at 200 revolutions/min at 37 °C. The bacterial suspensions were centrifuged at 5,000 g for 10 min. The sediments were washed twice with 25 ml of 10 mM potassium phosphate buffer (pH 7.4)/50 mM potassium chloride (KCP buffer) and centrifuged again. The pellets were taken up in 800 µl KCP buffer and sonicated thrice for 15 s with 30 s pauses in between. The soluble fraction was attained by centrifuging for 1 h at 100,000 g. The supernatants (in the following termed cytosolic preparations) were frozen at −80 °C. The protein concentrations were determined according to a bicinchoninic acid (BCA) assay protocol. […]\nThe ribonucleoside adduct N ^6-((furan-2-yl)methyl)-adenosine (N ^6-MF-A) was analyzed by isotope-dilution UPLC-MS/MS with the same system described above using a HSS T3 column (1.8 µm, 2.1 × 100 mm, Waters). […] The fragmentations of N ^6-MF-A into the aglycone cation [N ^6-((furan-2-yl)methyl)-adenine-H]^+ (m/z = 348.1 → 216.1), the cleavage of the 2-methylfuranyl cation (m/z = 348.1 → 81.0) and the release of [N ^6-methyl-adenine-H]^+ (m/z = 348.1 → 148.0) were monitored together with the corresponding fragmentations of the isotope-labeled internal standard [^15N5]N ^6-MF-A for the formation of the aglycone (m/z = 353.1 → 221.1), the 2-methylfuran cation (m/z = 353.1 → 81.0) and ^15N5-labeled N ^6-methyl-adenine (m/z = 353.1 → 153.0). The N ^6-MF-A content of the incubation mixture was calculated from the ratio of peak areas resulting from the total ion current of all three MRM signals of the analyte. […]"}, "rSult1c1": {"target": "T1, rSult1c1 (Rattus norvegicus, UniProt P50237)", "T1 construct": "made in house; host or cells: Salmonella typhimurium TA1538 (cytosolic fraction, enzyme not purified)", "T1 sequence (P50237 whole entry)": "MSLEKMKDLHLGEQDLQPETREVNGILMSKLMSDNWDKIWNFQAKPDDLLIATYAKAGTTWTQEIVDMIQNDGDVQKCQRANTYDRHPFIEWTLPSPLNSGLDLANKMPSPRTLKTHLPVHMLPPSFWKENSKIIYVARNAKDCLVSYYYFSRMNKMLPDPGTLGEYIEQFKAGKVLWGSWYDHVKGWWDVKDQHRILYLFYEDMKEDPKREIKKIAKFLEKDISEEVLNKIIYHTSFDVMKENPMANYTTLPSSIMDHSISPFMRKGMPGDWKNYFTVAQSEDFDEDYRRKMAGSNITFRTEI", "type": "biochemical", "procedure": "(§1) Cytosolic fractions containing individual SULT forms were prepared from transgenic S. typhimurium TA1538. Table S1 in the Supplementary Material provides a summary of the thirty SULTs used in the current study together with references describing the cloning of the respective S. typhimurium TA1538 strains. The expressed SULT forms are denoted with the prefixes h, m and r for human, mouse and rat enzymes, respectively. Bacteria were grown in Luria Broth medium containing ampicillin (100 µg/ml) by stirring for 8 h at 200 revolutions/min at 37 °C. The bacterial suspensions were centrifuged at 5,000 g for 10 min. The sediments were washed twice with 25 ml of 10 mM potassium phosphate buffer (pH 7.4)/50 mM potassium chloride (KCP buffer) and centrifuged again. The pellets were taken up in 800 µl KCP buffer and sonicated thrice for 15 s with 30 s pauses in between. The soluble fraction was attained by centrifuging for 1 h at 100,000 g. The supernatants (in the following termed cytosolic preparations) were frozen at −80 °C. The protein concentrations were determined according to a bicinchoninic acid (BCA) assay protocol. The SULT concentrations in the cytosolic preparations were estimated after electrophoretic separation and immunodetection using inclusion bodies of different SULT forms as standards (Teubner et al. [2007]). The preparation of SULT inclusion bodies and the immunodetection of SULTs is described in the Supplementary Material, which also contains a representative immunoblot of different amounts of rSult1a1standard and a cytosolic preparation of S. typhimurium expressing rSult1a1 (Fig. S1).\n(§2) The reaction mixtures were prepared as described for HMF. In addition, they contained 10 mM adenosine as a nucleophilic scavenger. Following incubation for 20 min at 37 °C, sulfoconjugation reactions were stopped by adding 100 µl cold methanol containing 175 fmol of [^15N5]N ^6-MF-A as the internal standard, mixed and centrifuged at 15,000 g for 10 min. The clear supernatants were subjected to UPLC-MS/MS analyses. Incubations were performed as quadruplicates. At higher concentrations, FFA reacts spontaneously with adenosine at low, but detectable, levels. To correct for the SULT-independent adduct formation, mixtures with SULT-deficient cytosols were carried along simultaneously in duplicate. Controls were subtracted from the experimental samples.\n(§3) The ribonucleoside adduct N ^6-((furan-2-yl)methyl)-adenosine (N ^6-MF-A) was analyzed by isotope-dilution UPLC-MS/MS with the same system described above using a HSS T3 column (1.8 µm, 2.1 × 100 mm, Waters). Samples of 8 µl were eluted with 10 mM ammonium bicarbonate buffer, pH 8.0 (A) and methanol (B) using an 6-min gradient from 98 % solvent A to 15 % solvent A at 0.35 ml/min flow rate (Yin et al. [2013]). The electrospray interface of the mass spectrometer operated in the positive ion mode. The fragmentations of N ^6-MF-A into the aglycone cation [N ^6-((furan-2-yl)methyl)-adenine-H]^+ (m/z = 348.1 → 216.1), the cleavage of the 2-methylfuranyl cation (m/z = 348.1 → 81.0) and the release of [N ^6-methyl-adenine-H]^+ (m/z = 348.1 → 148.0) were monitored together with the corresponding fragmentations of the isotope-labeled internal standard [^15N5]N ^6-MF-A for the formation of the aglycone (m/z = 353.1 → 221.1), the 2-methylfuran cation (m/z = 353.1 → 81.0) and ^15N5-labeled N ^6-methyl-adenine (m/z = 353.1 → 153.0). The N ^6-MF-A content of the incubation mixture was calculated from the ratio of peak areas resulting from the total ion current of all three MRM signals of the analyte. For the fragmentation of N ^6-MF-A ([^15N5]N ^6-MF-A), collision energies were 20, 25 and 35 eV for the transitions m/z = 348.1 → 216.1 (m/z = 353.1 → 221.1), m/z = 348.1 → 148.0 (m/z = 353.1 → 153.0) and m/z = 348.1 → 81.0 (m/z = 353.1 → 81.0), respectively. […]"}, "rSult2a1": {"target": "T2, rSult2a1 (Rattus norvegicus, UniProt P15709)", "T2 construct": "made in house; host or cells: Salmonella typhimurium TA1538 (cytosolic fraction, enzyme not purified)", "T2 sequence (P15709 1-284)": "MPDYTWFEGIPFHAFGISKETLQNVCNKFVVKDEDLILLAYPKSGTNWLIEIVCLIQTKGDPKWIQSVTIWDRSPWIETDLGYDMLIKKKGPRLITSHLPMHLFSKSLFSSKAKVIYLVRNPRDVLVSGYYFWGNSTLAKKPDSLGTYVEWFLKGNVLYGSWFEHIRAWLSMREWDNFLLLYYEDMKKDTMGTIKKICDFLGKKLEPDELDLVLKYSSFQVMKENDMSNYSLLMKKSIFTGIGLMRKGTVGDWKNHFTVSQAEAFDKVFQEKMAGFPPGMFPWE", "type": "biochemical", "procedure": "as §1, §2, §3"}, "mSult2a1": {"target": "T3, mSult2a1 (Mus musculus, UniProt P52843)", "T3 construct": "made in house; host or cells: Salmonella typhimurium TA1538 (cytosolic fraction, enzyme not purified)", "T3 sequence (P52843 1-285)": "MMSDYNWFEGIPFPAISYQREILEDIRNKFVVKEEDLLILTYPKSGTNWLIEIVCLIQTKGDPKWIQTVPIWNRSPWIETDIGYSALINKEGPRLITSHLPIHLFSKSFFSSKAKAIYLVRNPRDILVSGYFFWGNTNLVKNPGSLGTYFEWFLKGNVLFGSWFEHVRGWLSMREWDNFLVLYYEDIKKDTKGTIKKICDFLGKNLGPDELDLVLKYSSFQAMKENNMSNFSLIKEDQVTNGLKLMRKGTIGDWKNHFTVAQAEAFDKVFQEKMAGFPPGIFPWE", "type": "biochemical", "procedure": "as §1, §2, §3"}, "rSult1c2": {"target": "T4, rSult1c2 (Rattus norvegicus, UniProt Q9WUW8)", "T4 construct": "made in house; host or cells: Salmonella typhimurium TA1538 (cytosolic fraction, enzyme not purified)", "T4 sequence (Q9WUW8 whole entry)": "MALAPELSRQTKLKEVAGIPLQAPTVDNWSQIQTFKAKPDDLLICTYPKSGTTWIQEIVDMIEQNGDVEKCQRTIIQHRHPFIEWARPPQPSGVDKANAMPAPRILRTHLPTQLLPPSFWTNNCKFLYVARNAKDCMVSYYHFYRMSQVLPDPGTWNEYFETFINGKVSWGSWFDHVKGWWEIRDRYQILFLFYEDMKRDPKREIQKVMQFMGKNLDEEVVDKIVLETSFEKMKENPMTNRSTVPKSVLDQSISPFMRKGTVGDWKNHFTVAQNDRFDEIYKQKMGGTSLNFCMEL", "type": "biochemical", "procedure": "as §1, §2, §3"}, "hSULT1B1": {"target": "T5, hSULT1B1 (Homo sapiens, UniProt O43704)", "T5 construct": "made in house; host or cells: Salmonella typhimurium TA1538 (cytosolic fraction, not purified)", "T5 sequence (O43704 whole entry)": "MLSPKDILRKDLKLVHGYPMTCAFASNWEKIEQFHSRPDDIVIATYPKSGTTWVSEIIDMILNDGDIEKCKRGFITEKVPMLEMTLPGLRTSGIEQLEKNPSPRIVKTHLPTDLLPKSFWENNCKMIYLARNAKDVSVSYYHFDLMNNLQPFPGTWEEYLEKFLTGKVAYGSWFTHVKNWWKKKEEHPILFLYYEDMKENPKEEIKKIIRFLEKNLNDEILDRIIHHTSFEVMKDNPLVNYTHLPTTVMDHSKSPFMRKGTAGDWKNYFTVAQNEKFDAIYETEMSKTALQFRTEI", "type": "biochemical", "procedure": "as §1, §2, §3"}, "hSULT1A3": {"target": "T6, hSULT1A3 (Homo sapiens, UniProt P0DMM9)", "T6 construct": "made in house; host or cells: Salmonella typhimurium TA1538 (cytosolic fraction, not purified)", "T6 sequence (P0DMM9 whole entry)": "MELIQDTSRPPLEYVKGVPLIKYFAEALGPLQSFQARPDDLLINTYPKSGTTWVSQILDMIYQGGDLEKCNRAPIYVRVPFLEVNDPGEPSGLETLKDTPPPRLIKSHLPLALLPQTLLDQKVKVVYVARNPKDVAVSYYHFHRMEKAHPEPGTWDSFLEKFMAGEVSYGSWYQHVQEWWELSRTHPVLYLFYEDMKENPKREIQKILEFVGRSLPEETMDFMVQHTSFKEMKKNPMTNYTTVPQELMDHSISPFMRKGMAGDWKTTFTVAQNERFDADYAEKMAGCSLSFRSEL", "type": "biochemical", "procedure": "as §1, §2, §3"}, "[1]": {"conditions": "1 mM FFA, corrected by actual SULT concentration in the cytosolic preparation"}}}
{"compound": "OCc1ccco1", "note": "[FFA, furfuryl alcohol]", "values": [{"measurement": "Rate of N6-MF-A formation", "setting": "rSult2a4; 0.1 mM FFA", "result": "<18", "unit": "fmol N ^6-MF-A/mg/min"}, {"measurement": "Rate of N6-MF-A formation", "setting": "rSult2a4; 1 mM FFA", "result": "<20", "unit": "fmol N ^6-MF-A/mg/min"}, {"measurement": "Rate of N6-MF-A formation", "setting": "rSult2a4; 10 mM FFA", "result": "<44", "unit": "fmol N ^6-MF-A/mg/min"}, {"measurement": "Rate of N6-MF-A formation", "setting": "rSult1c1; 0.1 mM FFA", "result": "<18", "unit": "fmol N ^6-MF-A/mg/min"}, {"measurement": "Rate of N6-MF-A formation", "setting": "rSult1c1; 1 mM FFA", "result": "97.8 ± 2.3", "unit": "fmol N ^6-MF-A/mg/min"}, {"measurement": "Rate of N6-MF-A formation", "setting": "rSult1c1; 10 mM FFA", "result": "492 ± 13", "unit": "fmol N ^6-MF-A/mg/min"}, {"measurement": "Rate of N6-MF-A formation", "setting": "rSult2a1; 0.1 mM FFA", "result": "<18", "unit": "fmol N ^6-MF-A/mg/min"}, {"measurement": "Rate of N6-MF-A formation", "setting": "rSult2a1; 1 mM FFA", "result": "24.8 ± 1.4", "unit": "fmol N ^6-MF-A/mg/min"}, {"measurement": "Rate of N6-MF-A formation", "setting": "rSult2a1; 10 mM FFA", "result": "228 ± 7", "unit": "fmol N ^6-MF-A/mg/min"}, {"measurement": "Rate of N6-MF-A formation", "setting": "mSult2a1; 0.1 mM FFA", "result": "<18", "unit": "fmol N ^6-MF-A/mg/min"}, {"measurement": "Rate of N6-MF-A formation", "setting": "mSult2a1; 1 mM FFA", "result": "<20", "unit": "fmol N ^6-MF-A/mg/min"}, {"measurement": "Rate of N6-MF-A formation", "setting": "mSult2a1; 10 mM FFA", "result": "154 ± 2", "unit": "fmol N ^6-MF-A/mg/min"}, {"measurement": "Rate of N6-MF-A formation", "setting": "rSult1c2; 0.1 mM FFA", "result": "<18", "unit": "fmol N ^6-MF-A/mg/min"}, {"measurement": "Rate of N6-MF-A formation", "setting": "rSult1c2; 1 mM FFA", "result": "<20", "unit": "fmol N ^6-MF-A/mg/min"}, {"measurement": "Rate of N6-MF-A formation", "setting": "rSult1c2; 10 mM FFA", "result": "<44", "unit": "fmol N ^6-MF-A/mg/min"}, {"measurement": "Rate of N6-MF-A formation", "setting": "hSULT1B1; 0.1 mM FFA", "result": "23.3 ± 0.3", "unit": "fmol N ^6-MF-A/mg/min"}, {"measurement": "Rate of N6-MF-A formation", "setting": "hSULT1B1; 1 mM FFA", "result": "211 ± 2", "unit": "fmol N ^6-MF-A/mg/min"}, {"measurement": "Rate of N6-MF-A formation (corr.)", "setting": "hSULT1B1; [1]", "result": "5,010 ± 50 fmol N ^6-MF-A/mg/min"}, {"measurement": "Rate of N6-MF-A formation", "setting": "hSULT1B1; 10 mM FFA", "result": "1,070 ± 20 fmol N ^6-MF-A/mg/min"}, {"measurement": "Rate of N6-MF-A formation", "setting": "hSULT1A3; 1 mM FFA", "result": "27.3 ± 0.5", "unit": "fmol N ^6-MF-A/mg/min"}, {"measurement": "Rate of N6-MF-A formation (corr.)", "setting": "hSULT1A3; [1]", "result": "1,950 ± 30 fmol N ^6-MF-A/mg/min"}, {"measurement": "Rate of N6-MF-A formation", "setting": "hSULT1A3; 10 mM FFA", "result": "226 ± 3", "unit": "fmol N ^6-MF-A/mg/min"}]}
